The source of these data is patent publication US9365604B2, “Oligomer-nucleoside phosphate conjugates” (NEKTAR THERAPEUTICS, priority 2007, dated 2016).

One data set has as its system PANC-1. As to the kind of experiment: In vitro cytotoxicity assay (CellTiter-Glo). Conditions: 72 h exposure. It is filed as cell-based. The procedure:
The objective of these studies was to determine the IC50 values for PEG-gemcitabine conjugates against gemcitabine-resistant cell lines based on data from previous Xenograft studies. The cells were exposed for 72 h, and cell viability assessed by using the CellTiter-Glo assay.
The PEG-gemcitabine derivatives and gemcitabine inhibited the growth of most of the cell lines with IC50 values from the nM to low μM range, except for PANC-1 cells. Like the previous study, some of the IC50 values should be interpreted carefully because the concentration range tested was not centered around the IC50. […] The PANC-1 pancreatic cell line, in contrast to BxPC-3, Capan-1, or MIA-PaCa-2, has been shown previously to be resistant in vitro to gemcitabine, and 4′-thio-FAC, a deoxycytidine sulfur- and fluoro-substituted analog (Zajchowski et al., (2005). Int J Cancer. 114(6), 1002-9).

For data set [1] the following is noted: on a mM basis.
Description: Cells were inoculated into 24-well microtiter plates in 100 μL at 5×10^3 cells/well, in duplicate. After 24 h, test articles were added to the cells for 24 or 48 h, after which time the supernatant from each of the wells was collected and stored below −15° C. until LC/MS analysis.
A further data set has as its system CAKI-1. As to the kind of experiment: In vitro cytotoxicity assay (CellTiter-Glo). It is filed as cell-based. To be noted: for IC50: 72 h exposure, CellTiter-Glo. In general terms: ATP-based viability assays read luminescence as a measure of living cells.
A further data set concerns MDCK cells. As to the kind of experiment: Bi-directional permeability in MDCK cells.

Some results are limits rather than exact numbers.

Description for CAKI-1: The objective of these studies were to determine the IC50 values for PEG-floxuridine conjugates against floxuridine-resistant cell lines based on data from previous Xenograft studies. The cells were exposed for 72 h, and cell viability assessed by using the CellTiter-Glo assay.
Excerpt for MDCK cells: Bi-Directional Permeability of PEG-Floxuridine Conjugates in Caco-2 and MDCK Cells

In the case of `COCCOCCOCCOCCOCCOCCOCCOP(=O)(O)OC[C@H]1O[C@@H](n2ccc(N)nc2=O)C(F)(F)[C@@H]1O.Cl` [Gemcitabine Mono (mPEG7), 5′-gemcitabine methoxy hepta(ethylene glycol) phosphate hydrochloride], in the data set on PANC-1, the IC50 (as a rule, the concentration that inhibits the measured activity by half) was more than 1e+06 nM. Further, the “remains after 24 and 48 h” value in data set [1] is “approximately 80%”. For the same molecule, in the data set with CAKI-1, the “Ratio vs gem (IC50) CAKI-1” value amounted to 6 and the IC50 came out at 50 nM. In the data set on MDCK cells, the “Papp A -> B” value is reported as <0.06 10^−6 cm/s, the “Papp B -> A” value is reported as <0.08 10^−6 cm/s, the Significant efflux result is “No” and the “percent recovery A -> B” value was 94%. Besides, the “percent recovery B -> A” value in the data set on MDCK cells was 96%.

Consider `COCCOCCOCCOP(=O)(O)OC[C@H]1O[C@@H](n2ccc(N)nc2=O)C(F)(F)[C@@H]1O.Cl` [Gemcitabine Mono (mPEG3), 5′-gemcitabine methoxy tri(ethylene glycol) phosphate hydrochloride], for which the IC50 with PANC-1 was more than 1e+06 nM. The “remains after 24 and 48 h” value in data set [1] is listed as “approximately 80%”. Also, in the data set on CAKI-1, the “Ratio vs gem (IC50) CAKI-1” value is 3 and 21 nM corresponded to half-maximal inhibition (IC50). In addition, in the data set on MDCK cells, the “Papp A -> B” value is recorded as <0.06 10^−6 cm/s, the “Papp B -> A” value is reported as <0.08 10^−6 cm/s, the Significant efflux entry is listed as “No” and the “percent recovery A -> B” value was determined as 91%. For the same molecule, the “percent recovery B -> A” value in the data set with MDCK cells turned out to be 96%.
